# Test results taken from patent US20050215544A1, “Methods of treating HIV infection” (priority 2004, published 2005).
# Legend:
# HIV-1 LAI [1] = assay: Two-drug combination antiviral assay with Compound 1 (combination indices, Chou and Rideout); format: cell-based; details: combination with Compound 1; for Combination Indices at 50% HIV Inhibition (Confidence Interval) / Combination Indices at 75% HIV Inhibition (Confidence Interval) / Combination Indices at 90% HIV Inhibition (Confidence Interval): 95% CI in parenthesis; for Overall Result of two-drug combination: all ratios and inhibition levels
# Method: (§1) Virus and cell lines. The T-cell lines, MT-2 and PM-1 were obtained through the AIDS Research and Reference Reagent Program, NIAID, and were contributed by Dr. D. Richman and Dr. R. Gallo, respectively. Both cell lines were cultured in RPMI 1640 medium supplemented with 10% fetal bovine serum, 2 mM L-glutamine and sub-cultured twice a week. The LAI strain of HIV-1 was obtained from the Fred Hutchinson Cancer Research Center, and the Bal strain was from NIH. Both virus stocks were amplified and titered in MT-2 cells (LAI) and PM-1 cells (Bal) using a virus infectivity assay.
# (§2) Drug Susceptibility and Cytotoxicity Assays. For drug susceptibility assays, MT-2 cells were infected with HIV-1 LAI (or PM-1 cells with HIV-1 Bal) at an MOI of 0.005, and seeded into 96-well microtiter plates ([…] cells/ml) containing serial dilutions of test compounds. […] Each drug ratio consisted of an array of 3-fold serial dilutions, and was performed in quadruplicate. The plates were incubated at 37° C./5% CO2. The MT-2 cells infected with HIV-1 LAI were incubated for 5 days. On day-five post-infection, 20 μl from each well was harvested and quantitated by a reverse transcriptase (RT) assay, or in samples involving non-nucleoside RT inhibitors, an MTS assay. The PM-1 cells infected with HIV-1 Bal and used for studying the combinations with CCR5 inhibitors were incubated for six days. On day-six post-infection, 20 μl from each well was harvested, 20- and 50-fold diluted and quantitated by p24 assay. Cytotoxicity assays were performed using uninfected cells, exposed to the same drug combinations, and incubated for six days. Cell viability was determined by an MTS assay. The CC50 values were calculated by using the exponential form of the median effect equation as mentioned below for calculation of EC50.
# Analysis of Drug Combination Effects. For determination of CI values, drugs were diluted in a fixed ratio and multiple ratios were analyzed. The drug serial dilutions spanned a range of concentrations near the EC50 value of each compound, so that equivalent antiviral activities could be compared. Concentration-response curves were estimated for each individual drug and every combination using the median-effect equation. The equation was fit using a nonlinear regression routine (Proc Nlin) in PC SAS version 8.01 (SAS Institute Inc., SAS Version 8.01, Cary, NC: SAS Institute Inc., 1990).
# (§3) In this equation, Fa stands for “fraction affected,” and represents the fraction of the viral load that has been inactivated. […] ED50 is drug concentration that is expected to reduce the amount of virus by 50%, and m is a parameter that reflects the slope of the concentration-response curve.
# To assess antiviral effects of different drug combination treatments, combination indices (CIs) were calculated according to Chou and Rideout. The combination index was computed as CI=[D]1/[Dm]1+[D]2/[Dm]2
# In this equation [Dm]1 and [Dm]2 are the concentrations of drugs that would individually produce a specific level of effect, while [D]1 and [D]2 are the concentrations of drugs in combination that would produce the same level of effect.
# Theoretically, additivity is implied if the CI is equal to one, synergy if the CI is less than one, and antagonism if the CI is greater than one. […] At best, we can construct a range that contains the likely values for the CI, given the noise in the data. In this report, these ranges are reported in parentheses next to each point estimate of the CI. […] If the range fell entirely above 1.0, we would infer antagonistic behavior. If the range were to include 1.0, we would infer additivity.
# HIV-1 LAI [2] = assay: microbe, parasite or virus in culture
# Method: as §1, §2, §3
# In carrying out the combination experiments below, the EC50 for Compound 1 and each comparator compound was determined during the course of each study, and used in the subsequent data analysis.
# uninfected cells = assay: Cytotoxicity assay of the drug combinations in uninfected cells (MTS); format: cell-based; details: combination with Compound 1 at highest concentrations tested, six days
# Method: Drug Susceptibility and Cytotoxicity Assays. […] Each drug ratio consisted of an array of 3-fold serial dilutions, and was performed in quadruplicate. The plates were incubated at 37° C./5% CO2. […] On day-five post-infection, 20 μl from each well was harvested and quantitated by a reverse transcriptase (RT) assay, or in samples involving non-nucleoside RT inhibitors, an MTS assay. The PM-1 cells infected with HIV-1 Bal and used for studying the combinations with CCR5 inhibitors were incubated for six days. On day-six post-infection, 20 μl from each well was harvested, 20- and 50-fold diluted and quantitated by p24 assay. Cytotoxicity assays were performed using uninfected cells, exposed to the same drug combinations, and incubated for six days. Cell viability was determined by an MTS assay. The CC50 values were calculated by using the exponential form of the median effect equation as mentioned below for calculation of EC50.
# [3] = EC50 ratio 1:1 (Compound 1 to comparator)
# [4] = EC50 ratio 1:2.5 (Compound 1 to comparator)
# [5] = EC50 ratio 2.5:1 (Compound 1 to comparator)
# [6] = Human immunodeficiency virus 1, MT2, 120 h
# [7] = MT-2 cells infected with HIV-1 LAI, MOI 0.005, 5 days, single drug
compound,measurement,setting,value
Cc1cn([C@H]2C=C[C@@H](CO)O2)c(=O)[nH]c1=O [Stavudine],Combination Indices at 50% HIV Inhibition (Confidence Interval),HIV-1 LAI [1]; [3],"0.25 (0.18, 0.33)"
same,Combination Indices at 75% HIV Inhibition (Confidence Interval),HIV-1 LAI [1]; [3],"0.53 (0.32, 0.74)"
same,Combination Indices at 90% HIV Inhibition (Confidence Interval),HIV-1 LAI [1]; [3],"1.12 (0.38, 1.86)"
same,Combination Indices at 50% HIV Inhibition (Confidence Interval),HIV-1 LAI [1]; [4],"0.14 (0.10, 0.19)"
same,Combination Indices at 75% HIV Inhibition (Confidence Interval),HIV-1 LAI [1]; [4],"0.22 (0.13, 0.32)"
same,Combination Indices at 90% HIV Inhibition (Confidence Interval),HIV-1 LAI [1]; [4],"0.36 (0.10, 0.62)"
same,Combination Indices at 50% HIV Inhibition (Confidence Interval),HIV-1 LAI [1]; [5],"0.28 (0.24, 0.32)"
same,Combination Indices at 75% HIV Inhibition (Confidence Interval),HIV-1 LAI [1]; [5],"0.39 (0.32, 0.47)"
same,Combination Indices at 90% HIV Inhibition (Confidence Interval),HIV-1 LAI [1]; [5],"0.55 (0.38, 0.73)"
same,Overall Result of two-drug combination,HIV-1 LAI [1],Moderate-
same,EC50,HIV-1 LAI [2]; [6],0.318 µM
C[C@H](Cn1cnc2c(N)ncnc21)OCP(=O)(O)O [Tenofovir],Combination Indices at 50% HIV Inhibition (Confidence Interval),HIV-1 LAI [1]; [3],"0.11 (0.09, 0.13)"
same,Combination Indices at 75% HIV Inhibition (Confidence Interval),HIV-1 LAI [1]; [3],"0.22 (0.17, 0.27)"
same,Combination Indices at 90% HIV Inhibition (Confidence Interval),HIV-1 LAI [1]; [3],"0.54 (0.31, 0.76)"
same,Combination Indices at 50% HIV Inhibition (Confidence Interval),HIV-1 LAI [1]; [4],"0.13 (0.11, 0.15)"
same,Combination Indices at 75% HIV Inhibition (Confidence Interval),HIV-1 LAI [1]; [4],"0.23 (0.18, 0.28)"
same,Combination Indices at 90% HIV Inhibition (Confidence Interval),HIV-1 LAI [1]; [4],"0.50 (0.30, 0.70)"
same,Combination Indices at 50% HIV Inhibition (Confidence Interval),HIV-1 LAI [1]; [5],"0.16 (0.13, 0.19)"
same,Combination Indices at 75% HIV Inhibition (Confidence Interval),HIV-1 LAI [1]; [5],"0.22 (0.17, 0.28)"
same,Combination Indices at 90% HIV Inhibition (Confidence Interval),HIV-1 LAI [1]; [5],"0.38 (0.22, 0.54)"
same,Overall Result of two-drug combination,HIV-1 LAI [1],Synergistic
same,EC50,HIV-1 LAI [2]; [7],0.013 µM
Nc1ccn([C@H]2CC[C@@H](CO)O2)c(=O)n1 [Zalcitabine],Combination Indices at 50% HIV Inhibition (Confidence Interval),HIV-1 LAI [1]; [3],"0.19 (0.15, 0.23)"
same,Combination Indices at 75% HIV Inhibition (Confidence Interval),HIV-1 LAI [1]; [3],"0.35 (0.26, 0.45)"
same,Combination Indices at 90% HIV Inhibition (Confidence Interval),HIV-1 LAI [1]; [3],"0.75 (0.40, 1.09)"
same,Combination Indices at 50% HIV Inhibition (Confidence Interval),HIV-1 LAI [1]; [4],"0.38 (0.31, 0.45)"
same,Combination Indices at 75% HIV Inhibition (Confidence Interval),HIV-1 LAI [1]; [4],"0.37 (0.28, 0.47)"
same,Combination Indices at 90% HIV Inhibition (Confidence Interval),HIV-1 LAI [1]; [4],"0.42 (0.24, 0.61)"
same,Combination Indices at 50% HIV Inhibition (Confidence Interval),HIV-1 LAI [1]; [5],"0.22 (0.18, 0.25)"
same,Combination Indices at 75% HIV Inhibition (Confidence Interval),HIV-1 LAI [1]; [5],"0.28 (0.22, 0.34)"
same,Combination Indices at 90% HIV Inhibition (Confidence Interval),HIV-1 LAI [1]; [5],"0.38 (0.24, 0.52)"
same,Overall Result of two-drug combination,HIV-1 LAI [1],Synergistic
same,EC50,HIV-1 LAI [2]; [6],0.012 µM
enfuvirtide,Cytotoxicity of the drug combination,uninfected cells,No significant cytotoxicity
same,Combination Indices at 50% HIV Inhibition (Confidence Interval),HIV-1 LAI [1]; [3],"0.17 (0.13, 0.21)"
same,Combination Indices at 75% HIV Inhibition (Confidence Interval),HIV-1 LAI [1]; [3],"0.42 (0.29, 0.55)"
same,Combination Indices at 90% HIV Inhibition (Confidence Interval),HIV-1 LAI [1]; [3],"1.03 (0.49, 1.58)"
same,Combination Indices at 50% HIV Inhibition (Confidence Interval),HIV-1 LAI [1]; [4],"0.14 (0.11, 0.18)"
same,Combination Indices at 75% HIV Inhibition (Confidence Interval),HIV-1 LAI [1]; [4],"0.30 (0.21, 0.39)"
same,Combination Indices at 90% HIV Inhibition (Confidence Interval),HIV-1 LAI [1]; [4],"0.65 (0.32, 0.97)"
same,Combination Indices at 50% HIV Inhibition (Confidence Interval),HIV-1 LAI [1]; [5],"0.26 (0.21, 0.31)"
same,Combination Indices at 75% HIV Inhibition (Confidence Interval),HIV-1 LAI [1]; [5],"0.46 (0.34, 0.58)"
same,Combination Indices at 90% HIV Inhibition (Confidence Interval),HIV-1 LAI [1]; [5],"0.82 (0.46, 1.18)"
same,Overall Result of two-drug combination,HIV-1 LAI [1],Moderate-
same,Overall Result of two-drug combination,HIV-1 LAI [1]; listed as enfuvurtide,moderate synergistic
same,EC50,HIV-1 LAI [2]; [7],0.006 µM
